Data from ChEMBL document CHEMBL5036314, “Structure-Guided Design of the First Noncovalent Small-Molecule Inhibitor of CRM1” (J Med Chem, 2021).
Values belong to the compound of their own block, whether it stands above or below them. Active and inactive are the calls of the source. No cut-off for these calls is given here.

What was measured:
[1] = system: HeLa; assay: Anti-cancer activity against human HeLa cells assessed as cell viability at 20 uM incubated for 2 hrs by EdU incorporation based assay; type: functional
[2] = target: Exportin-1 (Saccharomyces cerevisiae) (UniProt P30822); assay: Inhibition of GST-NES MVM binding to yeast CRM1 at 20 uM by pull down assay
[3] = system: Saccharomyces cerevisiae; assay: Inhibition of NES binding to yeast CRM1-T539 mutant in absence of RanGTP at 20 uM by pull down assay
[4] = system: PANC-1; assay: Anti-cancer activity against human PANC-1 cells assessed as cell survival at 10 uM for 72 hrs replaced with compound containing fresh culture medium every 12 hrs by Sulforhodamine B assay; type: functional, cell-based
[5] = system: HepG2; assay: Anti-cancer activity against human HepG2 cells assessed as cell survival at 10 uM for 72 hrs replaced with compound containing fresh culture medium every 12 hrs by Sulforhodamine B assay; type: functional, cell-based
[6] = system: SW48; assay: Anti-cancer activity against human SW48 cells assessed as cell survival at 10 uM for 72 hrs replaced with compound containing fresh culture medium every 12 hrs by Sulforhodamine B assay; type: functional, cell-based
[7] = system: MGC-803; assay: Anti-cancer activity against human MGC-803 cells assessed as cell survival at 10 uM for 72 hrs replaced with compound containing fresh culture medium every 12 hrs by Sulforhodamine B assay; type: functional, cell-based
[8] = system: HCT-116; assay: Anti-cancer activity against human HCT-116 cells assessed as cell survival at 10 uM for 72 hrs replaced with compound containing fresh culture medium every 12 hrs by Sulforhodamine B assay; type: functional, cell-based
[9] = system: A2780; assay: Anti-cancer activity against human A2780 cells assessed as cell survival at 10 uM for 72 hrs replaced with compound containing fresh culture medium every 12 hrs by Sulforhodamine B assay; type: functional, cell-based
[10] = system: HGC-27; assay: Anti-cancer activity against human HGC-27 cells assessed as cell survival at 10 uM for 72 hrs replaced with compound containing fresh culture medium every 12 hrs by Sulforhodamine B assay; type: functional, cell-based
[11] = system: HeLa; assay: Anti-cancer activity against human HeLa cells assessed as cell survival at 10 uM for 72 hrs replaced with compound containing fresh culture medium every 12 hrs by Sulforhodamine B assay; type: functional, cell-based
[12] = system: A549; assay: Anti-cancer activity against human A549 cells assessed as cell survival at 10 uM for 72 hrs replaced with compound containing fresh culture medium every 12 hrs by Sulforhodamine B assay; type: functional, cell-based
[13] = system: Huh-7; assay: Anti-cancer activity against human HuH-7 cells assessed as cell survival at 10 uM for 72 hrs replaced with compound containing fresh culture medium every 12 hrs by Sulforhodamine B assay; type: functional, cell-based

Compound: CC(C)CCNC/C=C/Sc1cc(C(F)(F)F)cc(C(F)(F)F)c1
Activity [1]: inactive

inhibition [2]: Active | inhibition [3]: Active
Compound: [O-][S+](/C=C/CBr)c1cc(C(F)(F)F)cc(C(F)(F)F)c1 (centres undefined)
Activity [1]: inactive

Compound: CC1=C(COCCC(C)(C)C)C(=O)N(Nc2ccc(C(F)(F)F)c(Cl)n2)C1=O
Activity [4]: Active | Activity [5]: Active | Activity [6]: Active | Activity [7]: Active | Activity [8]: Active | Activity [9]: Active | Activity [10]: Active | Activity [11]: Active | Activity [12]: Active | Activity [13]: Active
